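96-well plates; 48 h exposure; 5 concentrations. Endpoints by linear interpolation between flanking doses. Not reached: highest tested concentration assigned. TGI: concentration producing complete growth inhibition.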
Experiments:
Test in all cases: DTP human tumour cell line panel, 48 h
[1] = tested on: 786-0 renal
[2] = tested on: A498 renal
[3] = tested on: A549 NSCLC
[4] = tested on: ACHN renal
[5] = tested on: CAKI-1 renal
[6] = tested on: CCRF-CEM leukemia
[7] = tested on: COLO 205 colon
[8] = tested on: DU-145 prostate
[9] = tested on: EKVX NSCLC
[10] = tested on: HCC-2998 colon
[11] = tested on: HCT-116 colon
[12] = tested on: HCT-15 colon
[13] = tested on: HL-60(TB) leukemia
[14] = tested on: HOP-62 NSCLC
[15] = tested on: HOP-92 NSCLC
[16] = tested on: HS 578T breast
[17] = tested on: HT29 colon
[18] = tested on: IGROV1 ovarian
[19] = tested on: K-562 leukemia
[20] = tested on: KM12 colon
[21] = tested on: LOX IMVI melanoma
[22] = tested on: M14 melanoma
[23] = tested on: MALME-3M melanoma
[24] = tested on: MCF7 breast
[25] = tested on: MDA-MB-231 breast
[26] = tested on: MDA-MB-435
[27] = tested on: MDA-N
[28] = tested on: MOLT-4 leukemia
[29] = tested on: NCI-H226 lung
[30] = tested on: NCI-H23 lung
[31] = tested on: NCI-H460 lung
[32] = tested on: NCI-H522 lung
[33] = tested on: NCI/ADR-RES ovarian
[34] = tested on: OVCAR-3 ovarian
[35] = tested on: OVCAR-4 ovarian
[36] = tested on: OVCAR-5 ovarian
[37] = tested on: OVCAR-8 ovarian
[38] = tested on: PC-3 prostate
[39] = tested on: RPMI-8226 leukemia
[40] = tested on: RXF 393 renal
[41] = tested on: SF-268 CNS
[42] = tested on: SF-295 CNS
[43] = tested on: SF-539 CNS
[44] = tested on: SK-MEL-2 melanoma
[45] = tested on: SK-MEL-28 melanoma
[46] = tested on: SK-MEL-5 melanoma
[47] = tested on: SK-OV-3 ovarian
[48] = tested on: SN12C renal
[49] = tested on: SNB-19 CNS
[50] = tested on: SR leukemia
[51] = tested on: SW-620 colon
[52] = tested on: T-47D breast
[53] = tested on: TK-10 renal
[54] = tested on: U251 CNS
[55] = tested on: UACC-257 melanoma
[56] = tested on: UACC-62 melanoma
[57] = tested on: UO-31 renal
[58] = tested on: SNB-75 CNS
[59] = tested on: BT-549 breast

## CC(NC1=NCCO1)c1ccco1 (stereo not given)
[1]
  TGI: > 100 µM
[2]
  TGI: > 100 µM
[3]
  TGI: > 100 µM
[4]
  TGI: > 100 µM
[5]
  TGI: > 100 µM
[6]
  TGI: > 100 µM
[7]
  TGI: > 100 µM
[8]
  TGI: > 100 µM
[9]
  TGI: > 100 µM
[10]
  TGI: > 100 µM
[11]
  TGI: > 100 µM
[12]
  TGI: > 100 µM
[13]
  TGI: > 100 µM
[14]
  TGI: > 100 µM
[15]
  TGI: > 100 µM
[16]
  TGI: > 100 µM
[17]
  TGI: > 100 µM
[18]
  TGI: > 100 µM
[19]
  TGI: > 100 µM
[20]
  TGI: 90.2 µM
[21]
  TGI: > 100 µM
[22]
  TGI: > 100 µM
[23]
  TGI: > 100 µM
[24]
  TGI: > 100 µM
[25]
  TGI: > 100 µM
[26]
  TGI: > 100 µM
[27]
  TGI: > 100 µM
[28]
  TGI: > 100 µM
[29]
  TGI: > 100 µM
[30]
  TGI: > 100 µM
[31]
  TGI: > 100 µM
[32]
  TGI: > 100 µM
[33]
  TGI: > 100 µM
[34]
  TGI: > 100 µM
[35]
  TGI: > 100 µM
[36]
  TGI: > 100 µM
[37]
  TGI: > 100 µM
[38]
  TGI: > 100 µM
[39]
  TGI: > 100 µM
[40]
  TGI: > 100 µM
[41]
  TGI: > 100 µM
[42]
  TGI: > 100 µM
[43]
  TGI: > 100 µM
[44]
  TGI: > 100 µM
[45]
  TGI: > 100 µM
[46]
  TGI: > 100 µM
[47]
  TGI: > 100 µM
[48]
  TGI: > 100 µM
[49]
  TGI: > 100 µM
[50]
  TGI: > 100 µM
[51]
  TGI: > 100 µM
[52]
  TGI: > 100 µM
[53]
  TGI: > 100 µM
[54]
  TGI: > 100 µM
[55]
  TGI: > 100 µM
[56]
  TGI: > 100 µM
[57]
  TGI: > 100 µM

## COc1ccc(Cn2nc(OCc3ccccc3)c3cc([N+](=O)[O-])ccc32)cc1
[1]
  TGI: > 100 µM
[2]
  TGI: > 100 µM
[3]
  TGI: > 100 µM
[4]
  TGI: > 100 µM
[6]
  TGI: > 100 µM
[8]
  TGI: > 100 µM
[10]
  TGI: > 100 µM
[12]
  TGI: > 100 µM
[13]
  TGI: > 100 µM
[14]
  TGI: > 100 µM
[16]
  TGI: > 100 µM
[17]
  TGI: > 100 µM
[18]
  TGI: > 100 µM
[19]
  TGI: > 100 µM
[20]
  TGI: > 100 µM
[21]
  TGI: > 100 µM
[22]
  TGI: > 100 µM
[23]
  TGI: > 100 µM
[24]
  TGI: > 100 µM
[25]
  TGI: > 100 µM
[26]
  TGI: > 100 µM
[27]
  TGI: > 100 µM
[28]
  TGI: > 100 µM
[29]
  TGI: > 100 µM
[30]
  TGI: > 100 µM
[31]
  TGI: > 100 µM
[32]
  TGI: > 100 µM
[33]
  TGI: > 100 µM
[34]
  TGI: > 100 µM
[36]
  TGI: > 100 µM
[37]
  TGI: > 100 µM
[39]
  TGI: > 100 µM
[40]
  TGI: > 100 µM
[41]
  TGI: > 100 µM
[42]
  TGI: > 100 µM
[43]
  TGI: > 100 µM
[44]
  TGI: > 100 µM
[45]
  TGI: > 100 µM
[46]
  TGI: > 100 µM
[47]
  TGI: > 100 µM
[48]
  TGI: > 100 µM
[49]
  TGI: > 100 µM
[58]
  TGI: > 100 µM
[50]
  TGI: > 100 µM
[51]
  TGI: > 100 µM
[52]
  TGI: > 100 µM
[53]
  TGI: > 100 µM
[55]
  TGI: > 100 µM
[56]
  TGI: > 100 µM

## N#Cc1nc(C(=O)c2ccccc2)oc1N
[1]
  TGI: > 100 µM
[2]
  TGI: > 100 µM
[3]
  TGI: > 100 µM
[4]
  TGI: > 100 µM
[5]
  TGI: > 100 µM
[6]
  TGI: > 100 µM
[8]
  TGI: > 100 µM
[9]
  TGI: > 100 µM
[11]
  TGI: > 100 µM
[12]
  TGI: > 100 µM
[13]
  TGI: > 100 µM
[14]
  TGI: > 100 µM
[15]
  TGI: > 100 µM
[16]
  TGI: > 100 µM
[17]
  TGI: > 100 µM
[18]
  TGI: > 100 µM
[19]
  TGI: > 100 µM
[20]
  TGI: > 100 µM
[21]
  TGI: > 100 µM
[22]
  TGI: > 100 µM
[24]
  TGI: > 100 µM
[25]
  TGI: > 100 µM
[26]
  TGI: > 100 µM
[27]
  TGI: > 100 µM
[28]
  TGI: > 100 µM
[35]
  TGI: > 100 µM
[36]
  TGI: > 100 µM
[37]
  TGI: > 100 µM
[38]
  TGI: > 100 µM
[39]
  TGI: > 100 µM
[41]
  TGI: > 100 µM
[44]
  TGI: > 100 µM
[45]
  TGI: > 100 µM
[46]
  TGI: > 100 µM
[47]
  TGI: > 100 µM
[48]
  TGI: > 100 µM
[49]
  TGI: > 100 µM
[58]
  TGI: 8.45 µM
[51]
  TGI: > 100 µM
[53]
  TGI: > 100 µM
[54]
  TGI: > 100 µM
[55]
  TGI: > 100 µM
[56]
  TGI: > 100 µM

## C/C(=C\c1ccccc1)n1c(=O)cc(C)n1C
[3]
  TGI: > 100 µM
[4]
  TGI: > 100 µM
[59]
  TGI: > 100 µM
[5]
  TGI: > 100 µM
[6]
  TGI: > 100 µM
[7]
  TGI: > 100 µM
[8]
  TGI: > 100 µM
[9]
  TGI: > 100 µM
[10]
  TGI: > 100 µM
[11]
  TGI: > 100 µM
[14]
  TGI: > 100 µM
[15]
  TGI: > 100 µM
[16]
  TGI: > 100 µM
[17]
  TGI: > 100 µM
[18]
  TGI: > 100 µM
[19]
  TGI: > 100 µM
[20]
  TGI: > 100 µM
[21]
  TGI: > 100 µM
[22]
  TGI: > 100 µM
[24]
  TGI: > 100 µM
[26]
  TGI: > 100 µM
[27]
  TGI: > 100 µM
[28]
  TGI: > 100 µM
[29]
  TGI: > 100 µM
[30]
  TGI: > 100 µM
[31]
  TGI: > 100 µM
[33]
  TGI: > 100 µM
[34]
  TGI: > 100 µM
[35]
  TGI: > 100 µM
[36]
  TGI: > 100 µM
[37]
  TGI: > 100 µM
[38]
  TGI: > 100 µM
[39]
  TGI: > 100 µM
[40]
  TGI: > 100 µM
[41]
  TGI: > 100 µM
[42]
  TGI: > 100 µM
[43]
  TGI: > 100 µM
[44]
  TGI: > 100 µM
[45]
  TGI: > 100 µM
[46]
  TGI: > 100 µM
[47]
  TGI: > 100 µM
[48]
  TGI: > 100 µM
[49]
  TGI: > 100 µM
[58]
  TGI: > 100 µM
[51]
  TGI: > 100 µM
[52]
  TGI: > 100 µM
[53]
  TGI: > 100 µM
[54]
  TGI: > 100 µM
[55]
  TGI: > 100 µM
[56]
  TGI: > 100 µM
[57]
  TGI: > 100 µM

Reference: PubChem BioAssay (NCI)
